What all share (experiment): spectrophotometric NADH formation at […] nm, cell extract
Common to all, as to format: biochemical
What all share (details): 0.4 mM NAD+, 5 mM 6-phosphogluconate, 5 mM MgCl2, 50 mM Tris-HCl pH 8.0, 30 C

The target in experiment [1] is T1, GndA (M. flagellatus NAD+-dependent 6-phosphogluconate dehydrogenase, gndA) (Methylobacillus flagellatus, UniProt Q9L9P8).
T1 construct: codon-optimized gene, TPI1 promoter, integrated at GND1 locus of S. cerevisiae gnd1 gnd2 deletion strain IMX705; cell extract

Experiment [2] addresses T2, G. oxydans gox1705 (NAD+-preferring 6-phosphogluconate dehydrogenase) (Gluconobacter oxydans, UniProt G5EBD7).
T2 construct: codon-optimized gene, TPI1 promoter, integrated at GND1 locus of S. cerevisiae gnd1 gnd2 deletion strain IMX707; cell extract

The target of experiment [3] is T3, B. japonicum 6pgdh (NAD+-dependent 6-phosphogluconate dehydrogenase) (Bradyrhizobium diazoefficiens, UniProt Q89FE2).
T3 construct: gene blr6759; codon-optimized gene, TPI1 promoter, integrated at GND1 locus of S. cerevisiae gnd1 gnd2 deletion strain IMX706; cell extract

Each structure is given as a SMILES string.

T2 sequence (G5EBD7 whole entry): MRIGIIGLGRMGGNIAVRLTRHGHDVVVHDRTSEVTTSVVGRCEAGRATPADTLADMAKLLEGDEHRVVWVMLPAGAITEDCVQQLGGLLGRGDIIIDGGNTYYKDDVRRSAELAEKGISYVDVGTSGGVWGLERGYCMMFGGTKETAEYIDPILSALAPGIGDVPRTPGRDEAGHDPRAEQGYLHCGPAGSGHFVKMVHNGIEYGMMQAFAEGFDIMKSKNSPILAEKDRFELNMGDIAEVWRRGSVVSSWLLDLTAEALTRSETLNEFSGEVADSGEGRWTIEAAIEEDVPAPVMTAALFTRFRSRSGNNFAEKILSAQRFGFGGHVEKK
T1 sequence (Q9L9P8 entry or part of it): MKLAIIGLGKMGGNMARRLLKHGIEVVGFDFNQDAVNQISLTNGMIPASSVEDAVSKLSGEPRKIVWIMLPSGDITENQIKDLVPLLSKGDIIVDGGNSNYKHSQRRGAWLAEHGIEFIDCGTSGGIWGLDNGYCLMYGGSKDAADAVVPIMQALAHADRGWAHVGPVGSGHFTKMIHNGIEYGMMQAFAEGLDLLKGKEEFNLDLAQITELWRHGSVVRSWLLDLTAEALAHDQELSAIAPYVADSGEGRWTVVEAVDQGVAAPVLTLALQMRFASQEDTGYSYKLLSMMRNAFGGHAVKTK
T3 sequence (Q89FE2 entry or part of it): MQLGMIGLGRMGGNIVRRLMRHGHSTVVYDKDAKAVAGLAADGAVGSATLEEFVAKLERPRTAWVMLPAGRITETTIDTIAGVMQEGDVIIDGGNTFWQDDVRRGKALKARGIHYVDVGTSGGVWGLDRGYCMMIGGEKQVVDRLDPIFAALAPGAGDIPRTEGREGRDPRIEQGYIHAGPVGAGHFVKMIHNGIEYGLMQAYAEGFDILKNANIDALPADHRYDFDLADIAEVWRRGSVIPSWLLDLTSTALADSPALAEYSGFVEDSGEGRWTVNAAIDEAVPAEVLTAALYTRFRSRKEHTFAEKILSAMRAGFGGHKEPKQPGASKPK

Consider `NC(=O)c1ccc[n+]([C@@H]2O[C@H](COP(=O)(O)OP(=O)(O)OC[C@H]3O[C@@H](n4cnc5c(N)ncnc54)[C@H](O)[C@@H]3O)[C@@H](O)[C@H]2O)c1` [NAD^+], for which the “spectrophotometric NADH formation at 340 nm, cell extract” value in experiment [1] is “expressing gndA from M. flagellatus, showed the highest in vitro NAD^+-dependent 6-PGDH activity”; in experiment [2], “expressing bacterial 6-PGDH genes showed high specific activities with NAD^+ as the electron acceptor”; in experiment [3], “expressing bacterial 6-PGDH genes showed high specific activities with NAD^+ as the electron acceptor”.

The values are drawn from paper PMC5574463, “Improving ethanol yield in acetate-reducing Saccharomyces cerevisiae by cofactor engineering of 6-phosphogluconate dehydrogenase and deletion of ALD6” (Microbial Cell Factories, 2016).
